Structures can show the parent of a compound that is named as a salt.
How the values were obtained:
carrageen edema = carrageen edema test in the rat (hind paw volume, plethysmometer); details: for evolution of paw volume (delta in ml) at 1st hour / evolution of paw volume (delta in ml) at 2nd hour / evolution of paw volume (delta in ml) at 3rd hour / evolution of paw volume (delta in ml) at 4th hour / evolution of paw volume (delta in ml) at 5th hour / evolution of paw volume (delta in ml) at 6th hour: mean ± MSE; for % inhibition vs controls (paw edema AUC): p < 0.001; for AUC (mean ± MSE) of increase in paw volume: paw volume (delta in ml) vs time (0 to 6 hours), controls 4.23 ± 0.26
[1] = system: inflammatory exudate (IE); test: foreign body (sponge) method in the rat: inflammatory exudate volume; format: in vivo; details: for IE (inflammatory exudate) volume / % inhibition versus controls of IE: oral, 8 hours, listed as KGS; for IE (inflammatory exudate) volume: mean ± MSE, controls 5.15 ± 0.28
Method: (§1) These tests involved the use of 100 male CD strain rats (Charles River, Calco, LC, Italy) weighing 180±8 g. The animals were fasted for 12 hours (water ad libitum) before being used for the experiment.
(§2) The inflammatory reaction with the formation of exudate was induced by using sterilized polyester sponges (4×1.5×0.5 cm) soaked in carrageen dissolved at a 2% concentration in sterile physiological solution. The rats were anesthetized lightly with ether and two sponges per rat were implanted subcutaneously in a previously shaven dorsal area.
(§3) The sponges were removed 8 hours later after having sacrificed the animals by ether euthanasia, and immediately placed in large polyethylene 50 ml test tubes containing 10 ml of heparinized physiological solution. The test tubes were then subjected to centrifugation (1000 rotations; 15 minutes), followed by removal of the sponges and accurate measurement of the volume of the remaining fluid. Always using the Higgs et al. method, the acid lipids present in the fluid were extracted in chloroform with prior dilution in ethanol and acidification to pH 3. After complete evaporation of the chloroform, the remaining dry residue was dissolved in physiological solution and used for the immunoenzymatic assay of prostaglandin E2 (PGE2).
(§4) All the other reagents used for the tests were purchased from Merck-Bracco (Milan, Italy).

[2] = animal studies of the three salts vs Ketoprofen acid and Ketoprofen sodium salt: distribution and kinetics; format: in vivo, experimental animals
Source text: The three above mentioned Ketoprofen salts were compared with Ketoprofen acid and Ketoprofen sodium salt in animal studies.

prostaglandin E2 (PGE2) = test: foreign body (sponge) method in the rat: PGE2 in the inflammatory exudate (immunoenzymatic assay); format: in vivo; details: for PGE2 concentration in the inflammatory exudate / % inhibition versus controls of PGE2: oral, 8 hours, listed as KGS; for PGE2 concentration in the inflammatory exudate: mean, controls 98.7 ± 4.7
Method: as §1, §2, §3, §4

[3] = rat, oral, 1 mg/kg, listed as KGS
[4] = rat, oral, 2 mg/kg, listed as KGS
[5] = rat, 0.5, 1, 2 and 4 mg/kg per os

SMILES: CC(C(=O)O)c1cccc(C(=O)c2ccccc2)c1 (stereo not shown) [Ketoprofen Glucosamine salt]
- ED50 (carrageen edema; Rattus norvegicus, po, read-out: oral ED50 (carrageen edema, extrapolated from AUC), rat, oral, 95% conf. lim. KGS 0.733-1.474, KLS 1.198-1.567): 1.1 mg/kg
- anti-inflammatory / anti-edematogenic effect (carrageen edema; rat, oral): dose-dependent
- anti-inflammatory activity compared with Ketoprofen Lysine salt (carrageen edema; rat, oral 0.5, 1 and 2 mg/kg): comparable
- evolution of paw volume (delta in ml) at 1st hour (carrageen edema; rat, oral, 0.5 mg/kg, controls 0.40 ± 0.02, listed as KGS): 0.28 ± 0.02 mL
- evolution of paw volume (delta in ml) at 2nd hour (carrageen edema; rat, oral, 0.5 mg/kg, controls 0.71 ± 0.02, listed as KGS): 0.51 ± 0.03 mL
- evolution of paw volume (delta in ml) at 3rd hour (carrageen edema; rat, oral, 0.5 mg/kg, controls 0.87 ± 0.03, listed as KGS): 0.62 ± 0.04 mL
- evolution of paw volume (delta in ml) at 4th hour (carrageen edema; rat, oral, 0.5 mg/kg, controls 0.93 ± 0.03, listed as KGS): 0.65 ± 0.04 mL
- evolution of paw volume (delta in ml) at 5th hour (carrageen edema; rat, oral, 0.5 mg/kg, controls 0.90 ± 0.04, listed as KGS): 0.62 ± 0.05 mL
- evolution of paw volume (delta in ml) at 6th hour (carrageen edema; rat, oral, 0.5 mg/kg, controls 0.84 ± 0.04, listed as KGS): 0.56 ± 0.05 mL
- % inhibition vs controls (paw edema AUC) (carrageen edema; rat, oral, 0.5 mg/kg): 30%
- % inhibition vs controls (paw edema AUC) (carrageen edema; rat, oral, 0.5 mg/kg, listed as KGS): 30.0%
- AUC (mean ± MSE) of increase in paw volume (carrageen edema; rat, oral, 0.5 mg/kg, listed as KGS, 0.5 mg/kg): 2.96 ± 0.15
- evolution of paw volume (delta in ml) at 1st hour (carrageen edema; [3]): 0.23 ± 0.01 mL
- evolution of paw volume (delta in ml) at 2nd hour (carrageen edema; [3]): 0.39 ± 0.02 mL
- evolution of paw volume (delta in ml) at 3rd hour (carrageen edema; [3]): 0.46 ± 0.02 mL
- evolution of paw volume (delta in ml) at 4th hour (carrageen edema; [3]): 0.48 ± 0.02 mL
- evolution of paw volume (delta in ml) at 5th hour (carrageen edema; [3]): 0.45 ± 0.02 mL
- evolution of paw volume (delta in ml) at 6th hour (carrageen edema; [3]): 0.39 ± 0.03 mL
- % inhibition vs controls (paw edema AUC) (carrageen edema; rat, oral, 1 mg/kg): 48%
- % inhibition vs controls (paw edema AUC) (carrageen edema; [3]): 48.0%
- AUC (mean ± MSE) of increase in paw volume (carrageen edema; rat, oral, 1 mg/kg, listed as KGS, 1 mg/kg): 2.20 ± 0.13
- evolution of paw volume (delta in ml) at 1st hour (carrageen edema; [4]): 0.11 ± 0.02 mL
- evolution of paw volume (delta in ml) at 2nd hour (carrageen edema; [4]): 0.20 ± 0.02 mL
- evolution of paw volume (delta in ml) at 3rd hour (carrageen edema; [4]): 0.26 ± 0.03 mL
- evolution of paw volume (delta in ml) at 4th hour (carrageen edema; [4]): 0.28 ± 0.03 mL
- evolution of paw volume (delta in ml) at 5th hour (carrageen edema; [4]): 0.25 ± 0.03 mL
- evolution of paw volume (delta in ml) at 6th hour (carrageen edema; [4]): 0.16 ± 0.02 mL
- % inhibition vs controls (paw edema AUC) (carrageen edema; rat, oral, 2 mg/kg): 72%
- % inhibition vs controls (paw edema AUC) (carrageen edema; [4]): 72.1%
- AUC (mean ± MSE) of increase in paw volume (carrageen edema; rat, oral, 2 mg/kg, listed as KGS, 2 mg/kg): 1.18 ± 0.06
- ED50 ([1]; Rattus norvegicus, po, 8 h, rat, 95% confidence limits KGS 1.802-2.381, KLS 2.334-3.094): 2.09 mg/kg
- control of the inflammatory response to sponge implantation [1, 5]: controls the vasculo-exudative inflammatory response in a dose dependent manner
- IE (inflammatory exudate) volume ([1]; rat, 0.5 mg/kg): 3.87 ± 0.27 mL
- % inhibition versus controls of IE ([1]; rat, 0.5 mg/kg): 24.8%
- IE (inflammatory exudate) volume ([1]; rat, 1 mg/kg): 3.56 ± 0.28 mL
- % inhibition versus controls of IE ([1]; rat, 1 mg/kg): 30.9%
- IE (inflammatory exudate) volume ([1]; rat, 2 mg/kg): 2.53 ± 0.22 mL
- % inhibition versus controls of IE ([1]; rat, 2 mg/kg): 50.9%
- IE (inflammatory exudate) volume ([1]; rat, 4 mg/kg): 1.05 ± 0.09 mL
- % inhibition versus controls of IE ([1]; rat, 4 mg/kg): 79.6%
- active substance concentration in the inflamed site ([2]; injection, vs Ketoprofen sodium salt): much greater than that observed with Ketoprofen sodium salt
- kinetic parameters after oral administration ([2]; oral, vs Ketoprofen acid and Ketoprofen sodium salt): significantly different
- ED50 (prostaglandin E2 (PGE2); Rattus norvegicus, po, 8 h, rat, 95% confidence limits KGS 1.848-2.131, KLS 2.215-3.005): 1.99 mg/kg
- inhibition of PGE2 activity in exudates (prostaglandin E2 (PGE2); [5]): singificant inhibition of PGE2 activity
- PGE2 concentration in the inflammatory exudate (prostaglandin E2 (PGE2); rat, 0.5 mg/kg): 67.6 ng/mL
- % inhibition versus controls of PGE2 (prostaglandin E2 (PGE2); rat, 0.5 mg/kg): 31.5%
- PGE2 concentration in the inflammatory exudate (prostaglandin E2 (PGE2); rat, 1 mg/kg): 60.5 ng/mL
- % inhibition versus controls of PGE2 (prostaglandin E2 (PGE2); rat, 1 mg/kg): 38.7%
- PGE2 concentration in the inflammatory exudate (prostaglandin E2 (PGE2); rat, 2 mg/kg): 49.9 ng/mL
- % inhibition versus controls of PGE2 (prostaglandin E2 (PGE2); rat, 2 mg/kg): 49.4%
- PGE2 concentration in the inflammatory exudate (prostaglandin E2 (PGE2); rat, 4 mg/kg): 24.9 ng/mL
- % inhibition versus controls of PGE2 (prostaglandin E2 (PGE2); rat, 4 mg/kg): 74.8%

— patent publication US6291527A (priority 1998, dated 2001)
